Results reported in patent US11926640B2, “Prodrugs of glutamine analogs” (THE JOHNS HOPKINS UNIVERSITY, priority 2015, dated 2024).
“Also recorded” adds a separate entry of the source. Structures can show the parent of a compound that is named as a salt. Values belong to the compound of their own block, whether it stands above or below them.

What was measured:
[1] = in vitro metabolic stability in mouse plasma; conditions: for PLASMA STABILITY Mouse: prodrug remaining within the 60 min incubation time; for stability in mouse plasma (in words): 30 min and 60 min
[2] = in vitro metabolic stability in human plasma; conditions: for PLASMA STABILITY Human: prodrug remaining within the 60 min incubation time; for stability in human plasma (in words): 30 min and 60 min
[3] = in vitro metabolic stability in monkey plasma; conditions: for PLASMA STABILITY Monkey: prodrug remaining within the 60 min incubation time; for stability in monkey plasma (in words): 30 min and 60 min
[4] = chemical stability (cyclization to diazo-imine, acidic pH); assay type: physicochemical
Description: Chemistry. Scheme 9 outlines the synthesis and characterization of the ester based prodrugs 20 and 3 of DON and their subsequent cyclization to novel diazo-imines 9a-b. The pyroglutamate esters 6a-b (D'Andrea, et al., 2008) were FMOC-protected to afford compounds 18 and 1. Formation of the diazoketones 19 and 2 was accomplished using TMS diazomethane in good yield. Rapid deprotection with piperidine afforded the ester based prodrugs 20 and 3. Unexpectedly […] cyclization was observed even under mild conditions (e.g. stirring in chloroform at room temperature) affording the novel diazo-imines 9a and 9b. It is believed that this is the first example of this functional group being described in the chemical literature.

[5] = in vitro liver microsomal stability, pig; conditions: pig microsomes
[6] = in vitro liver microsomal stability, human; conditions: human microsomes
[7] = 5-day i.v. toxicity comparison of DON and 38 in pigs; assay type: in vivo; conditions: at equivalent PBMC exposures
[8] = in vitro metabolic stability in pig plasma; conditions: 30 min and 60 min
[9] = in vitro metabolic stability in dog plasma; assay type: in vitro ADME; conditions: 30 min and 60 min
Description: Percentage remaining was calculated in the following manner.

[10] = DON release in mouse plasma after oral administration of prodrugs; assay type: in vivo; conditions: mice, p.o., 30 minutes and 5 hours after dosing, compared to DON
Description: Procedure for Pharmacokinetic analysis for DON release from its prodrugs: DON is extracted from samples (50 μL) with 250 μL methanol containing Glutamate-d5 (10 μM ISTD) by vortexing in low retention tubes. Samples are centrifuged at 16,000×g for 5 minutes to precipitate proteins. Supernatants (200 μL) are moved to new tube and dried at 45° C. under vacuum (approximately 1 hour). To each tube, 50 μL of 0.2 M sodium bicarbonate buffer (pH 9.0) and 100 μL dabsyl chloride stock is added. After vortexing, samples are incubated at 60° C. for 15 minutes to derivatize.

[11] = plasma and CSF pharmacokinetics of DON in swine after i.v. infusion; assay type: in vivo, Göttingen×Yucutan miniature swine; conditions: 60 min post-administration
Description: Compound: Compound 47 was dissolved in a sterile saline containing 5% ethanol and 5% Tween 80 on the date of administration.
Swine: Swine studies were conducted under a protocol approved by the Johns Hopkins Animal Care and Use Committee. Adult, female Göttingen×Yucutan miniature swine (Massachusetts General Hospital, MA) were housed in Johns Hopkins University facilities accredited by the Association for Assessment and Accreditation of Laboratory Animal Care International in compliance with the Animal Welfare Act, Animal Welfare Regulations, and the Public Health Service Policy on the Humane Care and Use of Laboratory Animals. Animals were maintained on a 14-h light and 10-h dark schedule, provided ad libitum water and a commercial miniswine diet (Teklad, Madison, WI) with environmental enrichment (fruit/vegetables) twice daily.

[12] = test system: MC38 colon cancer; assay: MC38 tumor model; assay type: in vivo, mice; conditions: single agent

Structure (SMILES): CC(C)OC(=O)[C@@H]1CCC(C=[N+]=[N-])=N1 (stereo in doubt) [Compound 9b, Isopropyl 5-(diazomethyl)-3,4-dihydro-2H-pyrrole-2-carboxylate]
chemical stability (in words) [4]: chemically stable even at acidic pH

Structure (SMILES): CC(C)OC(=O)[C@H](CCC(=O)C=[N+]=[N-])NC(=O)[C@@H](N)Cc1c[nH]c2ccccc12 (stereo in doubt) [Compound 38, Isopropyl 2-(2-amino-3-(1H-indol-3-yl)propanamido)-6-diazo-5-oxohexanoate]
PLASMA STABILITY Mouse [1]: 0% | liver microsomal stability (in words) [5]: moderate-high stability | liver microsomal stability (in words) [6]: moderate-high stability | PLASMA STABILITY Human [2]: 30% | DON delivered to GI tissues (in words) [7]: less DON to GI tissues | PLASMA STABILITY Monkey [3]: 10%

Structure (SMILES): CC(C)OC(=O)C(N)CCC(=O)C=[N+]=[N-] (centres unmarked) [Compound 3, Isopropyl 2-amino-6-diazo-5-oxohexanoate]
chemical stability (in words) [4]: chemical instability; also recorded: unstable

Structure (SMILES): CC(C)OC(=O)[C@H](CCC(=O)C=[N+]=[N-])NP(=O)(Oc1ccccc1)Oc1ccccc1 [Compound 4, Isopropyl 6-diazo-2-((diphenoxyphosphoryl)amino)-5-oxohexanoate]
stability in mouse plasma (in words) [1]: unstable | stability in pig plasma (in words) [8]: stable | stability in human plasma (in words) [2]: stable | stability in monkey plasma (in words) [3]: stable

Structure (SMILES): CC(C)OC(=O)C(CCC(=O)C=[N+]=[N-])NP(=O)(NC(CCC(=O)C=[N+]=[N-])C(=O)OC(C)C)Oc1ccccc1 (centres unmarked) [Compound 7, 1-methylethyl 2,6-bis[4-(1λ^5-diazynylidene)-3-oxobutyl]-9-methyl-7-oxo-4-phenoxy-8-oxa-3,5-diaza-4-phosphadecan-1-oate 4-oxide]
stability in mouse plasma (in words) [1]: unstable | stability in pig plasma (in words) [8]: stable | stability in human plasma (in words) [2]: stable | stability in monkey plasma (in words) [3]: stable

Structure (SMILES): CC(C)C[C@H](N)C(=O)N[C@@H](CCC(=O)C=[N+]=[N-])C(=O)OC(C)C [Compound 9, Isopropyl 2-(2-amino-4-methylpentanamido)-6-diazo-5-oxohexanoate]
stability in mouse plasma (in words) [1]: unstable | PLASMA STABILITY Mouse [1]: 0% | stability in pig plasma (in words) [8]: unstable | liver microsomal stability (in words) [5]: moderate-high stability | liver microsomal stability (in words) [6]: moderate-high stability | stability in human plasma (in words) [2]: unstable | PLASMA STABILITY Human [2]: 1% | stability in monkey plasma (in words) [3]: unstable | PLASMA STABILITY Monkey [3]: 1% | stability in dog plasma (in words) [9]: unstable

Structure (SMILES): CCOC(=O)[C@@H]1CCC(C=[N+]=[N-])=N1 [Compound 9a, Ethyl 5-(diazomethyl)-3,4-dihydro-2H-pyrrole-2-carboxylate]
chemical stability (in words) [4]: chemically stable even at acidic pH

Structure (SMILES): Cc1oc(=O)oc1COC(=O)N[C@@H](CCC(=O)C=[N+]=[N-])C(=O)OC(C)C [Compound 13, 1-Methylethyl 6-(1λ^5-diazynylidene)-N-{[(5-methyl-2-oxo-1,3-dioxol-4-yl)methoxy]carbonyl}-5-oxo-L-norleucinate]
PLASMA STABILITY Mouse [1]: 0% | PLASMA STABILITY Human [2]: 0% | PLASMA STABILITY Monkey [3]: 0%

Structure (SMILES): CCOC(=O)[C@@H](N)CCC(=O)C=[N+]=[N-] [Compound 20, Ethyl 2-amino-6-diazo-5-oxohexanoate]
chemical stability (in words) [4]: chemical instability; also recorded: unstable

Structure (SMILES): C[C@H](N)C(=O)N[C@@H](CCC(=O)C=[N+]=[N-])C(=O)O [Compound 23, 2-(2-Aminopropanamido)-6-diazo-5-oxohexanoic acid]
DON release / exposure in mouse plasma upon oral administration (in words) [10]: little DON release

Structure (SMILES): CC(C)C[C@H](N)C(=O)N[C@@H](CCC(=O)C=[N+]=[N-])C(=O)O [Compound 26, 2-(2-Amino-4-methylpentanamido)-6-diazo-5-oxohexanoic acid triethylammonium salt]
DON release / exposure in mouse plasma upon oral administration (in words) [10]: some release

Structure (SMILES): CC(OC(=O)N[C@@H](CCC(=O)C=[N+]=[N-])C(=O)O)OC(=O)C(C)C (some centres unmarked) [Compound 29, 6-Diazo-2-(((1-(isobutyryloxy)ethoxy)carbonyl)amino)-5-oxohexanoic acid triethylammonium salt]
DON release / exposure in mouse plasma upon oral administration (in words) [10]: little DON release

Structure (SMILES): CC(C)OC(=O)[C@H](CCC(=O)C=[N+]=[N-])NC(=O)OC(OC(=O)C(C)(C)C)c1ccccc1 (some centres unmarked) [Compound 47, Isopropyl 6-diazo-5-oxo-2-(((phenyl(pivaloyloxy)methoxy)carbonyl)amino) hexanoate]
CSF delivery of DON (in words) [11]: substantially higher amounts of DON to the CSF; also recorded: enhanced CSF delivery of DON | CSF:plasma ratio of DON (in words) [11]: increased CSF-to-plasma ratios; also recorded: enhanced CSF:plasma ratio

The next lines start with results.

PLASMA STABILITY Mouse [1]: 0% | PLASMA STABILITY Human [2]: 88% | PLASMA STABILITY Monkey [3]: 75%
Structure (SMILES): CCOC(=O)[C@H](CCC(=O)C=[N+]=[N-])NC(=O)OC(C)OC(=O)C(C)(C)C (mixture of isomers) [Compound 32, Ethyl 6-diazo-2-(((1-(pivaloyloxy)ethoxy)carbonyl)amino)-5-oxohexanoate]

DON release / exposure in mouse plasma upon oral administration (in words) [10]: little DON release
Structure (SMILES): CC(OC(=O)N[C@@H](CCC(=O)C=[N+]=[N-])C(=O)O)OC(=O)C(C)(C)C (some centres unmarked) [Compound 30, 6-Diazo-2-(((1-(pivaloyloxy)ethoxy)carbonyl)amino)-5-oxohexanoic acid triethylammonium salt]

PLASMA STABILITY Mouse [1]: 0% | PLASMA STABILITY Human [2]: 12% | PLASMA STABILITY Monkey [3]: 4%
Structure (SMILES): CCOC(=O)[C@H](CCC(=O)C=[N+]=[N-])NC(=O)[C@@H](N)Cc1c[nH]c2ccccc12 [Compound 34, Ethyl 2-(2-amino-3-(1H-indol-3-yl)propanamido)-6-diazo-5-oxohexanoate]

PLASMA STABILITY Mouse [1]: 0% | PLASMA STABILITY Human [2]: 0% | PLASMA STABILITY Monkey [3]: 0%
Structure (SMILES): CCOC(=O)[C@H](CCC(=O)C=[N+]=[N-])NC(=O)OCc1oc(=O)oc1C [Compound 36, Ethyl 6-diazo-2-((((5-methyl-2-oxo-1,3-dioxol-4-yl)methoxy)carbonyl)amino)-5-oxohexanoate]

PLASMA STABILITY Mouse [1]: 0% | PLASMA STABILITY Human [2]: 9% | PLASMA STABILITY Monkey [3]: 0%
Structure (SMILES): CC(C)OC(=O)[C@H](CCC(=O)C=[N+]=[N-])NC(=O)OCOC(=O)C(C)(C)C [Compound 42, Isopropyl 6-diazo-5-oxo-2-((((pivaloyloxy)methoxy)carbonyl)amino) hexanoate]

liver microsomal stability (in words) [5]: moderate-high stability | liver microsomal stability (in words) [6]: moderate-high stability
Structure (SMILES): CC(=O)N[C@@H](Cc1c[nH]c2ccccc12)C(=O)N[C@@H](CCC(=O)C=[N+]=[N-])C(=O)OC(C)C [Compound 60, Isopropyl 2-(2-acetamido-3-(1H-indol-3-yl)propanamido)-6-diazo-5-oxohexanoate]
antitumor efficacy in MC38 tumor model (in words) [12]: promoted tumor regression

DON release / exposure in mouse plasma upon oral administration (in words) [10]: below the limit of quantitation
Structure (SMILES): C=CCOC(=O)N[C@@H](CCC(=O)C=[N+]=[N-])C(=O)O [LTP 073]
